From ChEMBL document CHEMBL5247587, “Discovery of benzimidazole substituted 1, 2, 4-oxadiazole compounds as novel anti-HBV agents with TLR8-agonistic activities” (Eur J Med Chem, 2022)
The source made the active and inactive calls. No cut-off for these calls is given here.

Columns and labels:
[1] = Cytotoxicity against human HepG2 2.2.15 cells assessed as reduction in cell viability incubated for 72 hrs by CCK8 assay; type: toxicity, cell-based
[2] = tested on: Hepatitis B virus; test: Antiviral activity against HBV infected in human HepG2 2.2.15 cells assessed as inhibition of viral DNA replication at 4 uM incubated for 6 days with every 2 days media replacement by RT-PCR analysis relative to control; type: functional; parameters: scale not given: the % may be the effect or the level left; details: time 6 day
[3] = tested on: Hepatitis B virus; test: Antiviral activity against HBV infected in human HepG2 2.2.15 cells assessed as inhibition of viral DNA replication incubated for 6 days with every 2 days media replacement by RT-PCR analysis; type: functional, organism-based
[4] = Selectivity index, ratio of CC50 for human HepG2 2.2.15 cells to IC50 for HBV infected in human HepG2 2.2.15 cells; type: toxicity, cell-based; details: read-out: Ratio CC50/IC50
[5] = tested on: Hepatitis B virus; test: Antiviral activity against HBV infected in ETV/LAM-resistant human HepG2.A64 cells assessed as inhibition of viral DNA replication incubated for 72 hrs by RT-PCR analysis; type: functional, organism-based; details: HepG2.A64, 72 h
[6] = Selectivity index, ratio of CC50 for human HepG2.A64 cells to IC50 for HBV infected in ETV/LAM-resistant human HepG2.A64 cells; type: toxicity; details: read-out: Ratio CC50/IC50
[7] = tested on: Hepatitis B virus; test: Potency index, ratio of LAM IC50 to test compound IC50 for HBV infected in ETV/LAM-resistant human HepG2.A64 cells assessed as inhibition of viral DNA replication; type: functional
[8] = molecular target: Nuclear factor NF-kappa-B complex (Homo sapiens) (UniProt Q00653+P19838+Q04206); test: Activation of NF-kappaB (unknown origin) transfected in HEK293T cells at 0.4 to 10 uM incubated for 48 hrs by Dual-luciferase reporter gene assay; type: cell-based; details: dose 0.4-10 µM
Chain of Nuclear factor NF-kappa-B complex (Homo sapiens) (P19838 whole entry, looked up): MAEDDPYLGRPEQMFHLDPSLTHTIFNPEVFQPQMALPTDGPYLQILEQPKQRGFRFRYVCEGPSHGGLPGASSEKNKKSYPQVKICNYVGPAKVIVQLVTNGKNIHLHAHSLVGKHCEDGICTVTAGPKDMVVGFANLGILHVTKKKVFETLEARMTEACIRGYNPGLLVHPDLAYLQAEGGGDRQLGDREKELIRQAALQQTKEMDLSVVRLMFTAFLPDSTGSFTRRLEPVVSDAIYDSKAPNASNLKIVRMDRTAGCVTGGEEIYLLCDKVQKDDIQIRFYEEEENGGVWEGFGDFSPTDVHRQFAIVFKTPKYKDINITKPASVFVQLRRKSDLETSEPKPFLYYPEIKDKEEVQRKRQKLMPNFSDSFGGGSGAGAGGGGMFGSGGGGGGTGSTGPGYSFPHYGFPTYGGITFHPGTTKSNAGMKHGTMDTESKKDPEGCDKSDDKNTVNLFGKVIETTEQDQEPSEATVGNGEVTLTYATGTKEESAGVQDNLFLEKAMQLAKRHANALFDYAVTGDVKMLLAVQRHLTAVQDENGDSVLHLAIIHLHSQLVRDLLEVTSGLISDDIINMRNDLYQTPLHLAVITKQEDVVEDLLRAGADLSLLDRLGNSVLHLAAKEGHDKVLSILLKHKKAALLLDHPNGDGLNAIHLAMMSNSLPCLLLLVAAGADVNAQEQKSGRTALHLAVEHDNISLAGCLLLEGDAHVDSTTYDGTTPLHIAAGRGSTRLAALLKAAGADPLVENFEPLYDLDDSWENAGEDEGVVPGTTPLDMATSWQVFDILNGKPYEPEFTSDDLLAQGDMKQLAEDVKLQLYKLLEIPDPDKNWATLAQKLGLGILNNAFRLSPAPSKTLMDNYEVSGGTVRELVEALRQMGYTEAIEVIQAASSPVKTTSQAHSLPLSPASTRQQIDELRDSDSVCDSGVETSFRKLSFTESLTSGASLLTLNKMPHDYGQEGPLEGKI
Chain of Nuclear factor NF-kappa-B complex (Homo sapiens) (Q00653 whole entry, looked up): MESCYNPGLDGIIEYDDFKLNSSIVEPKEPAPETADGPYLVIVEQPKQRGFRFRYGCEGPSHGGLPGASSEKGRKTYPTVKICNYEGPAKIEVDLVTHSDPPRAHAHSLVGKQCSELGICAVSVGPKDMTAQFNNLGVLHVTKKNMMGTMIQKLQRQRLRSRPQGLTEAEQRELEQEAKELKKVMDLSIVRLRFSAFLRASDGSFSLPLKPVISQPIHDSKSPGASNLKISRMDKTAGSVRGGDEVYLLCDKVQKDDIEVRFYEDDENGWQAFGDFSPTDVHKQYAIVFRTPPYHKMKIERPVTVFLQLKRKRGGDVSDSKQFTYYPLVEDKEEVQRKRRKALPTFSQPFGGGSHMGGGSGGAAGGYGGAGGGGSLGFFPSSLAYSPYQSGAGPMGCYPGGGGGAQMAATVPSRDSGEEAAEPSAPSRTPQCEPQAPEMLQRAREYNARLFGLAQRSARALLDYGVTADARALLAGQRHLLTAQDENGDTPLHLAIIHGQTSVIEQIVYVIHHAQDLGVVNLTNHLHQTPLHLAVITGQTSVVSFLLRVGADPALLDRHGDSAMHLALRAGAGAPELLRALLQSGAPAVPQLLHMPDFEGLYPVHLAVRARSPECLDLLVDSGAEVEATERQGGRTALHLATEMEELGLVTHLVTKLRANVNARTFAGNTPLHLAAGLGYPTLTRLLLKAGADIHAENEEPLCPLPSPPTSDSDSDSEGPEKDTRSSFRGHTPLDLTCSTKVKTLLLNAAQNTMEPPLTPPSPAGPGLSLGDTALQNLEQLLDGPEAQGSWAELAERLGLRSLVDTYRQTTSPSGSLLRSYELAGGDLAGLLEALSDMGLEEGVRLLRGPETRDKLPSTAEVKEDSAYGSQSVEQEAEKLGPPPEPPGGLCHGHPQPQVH
Chain of Nuclear factor NF-kappa-B complex (Homo sapiens) (Q04206 whole entry, looked up): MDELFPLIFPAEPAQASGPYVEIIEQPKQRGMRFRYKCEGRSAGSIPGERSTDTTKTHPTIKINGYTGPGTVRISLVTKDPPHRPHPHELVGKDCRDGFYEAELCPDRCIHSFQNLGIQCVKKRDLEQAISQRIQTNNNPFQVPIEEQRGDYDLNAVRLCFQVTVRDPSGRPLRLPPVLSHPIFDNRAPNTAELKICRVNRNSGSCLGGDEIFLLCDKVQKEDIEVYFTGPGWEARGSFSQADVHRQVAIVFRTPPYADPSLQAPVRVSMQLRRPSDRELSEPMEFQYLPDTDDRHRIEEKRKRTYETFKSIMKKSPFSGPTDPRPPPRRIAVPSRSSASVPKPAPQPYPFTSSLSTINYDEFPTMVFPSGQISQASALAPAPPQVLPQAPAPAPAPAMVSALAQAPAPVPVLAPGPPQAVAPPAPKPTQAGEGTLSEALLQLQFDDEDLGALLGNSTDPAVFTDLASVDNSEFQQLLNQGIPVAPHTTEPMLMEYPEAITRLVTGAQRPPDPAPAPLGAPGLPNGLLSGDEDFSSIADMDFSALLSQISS

[9] = molecular target: T1, Toll-like receptor 8 (Homo sapiens) (UniProt Q9NR97); test: Agonist activity at human TLR8 transfected in HEK293T cells co-transfected with NF-kappaB and renilla assessed as increase in TLR8-induced NF-kappaB activity at 0.4 to 10 uM incubated for 48 hrs by Dual-luciferase reporter gene assay; type: cell-based; details: filed as agonist, dose 0.4-10 µM
T1 sequence (whole entry): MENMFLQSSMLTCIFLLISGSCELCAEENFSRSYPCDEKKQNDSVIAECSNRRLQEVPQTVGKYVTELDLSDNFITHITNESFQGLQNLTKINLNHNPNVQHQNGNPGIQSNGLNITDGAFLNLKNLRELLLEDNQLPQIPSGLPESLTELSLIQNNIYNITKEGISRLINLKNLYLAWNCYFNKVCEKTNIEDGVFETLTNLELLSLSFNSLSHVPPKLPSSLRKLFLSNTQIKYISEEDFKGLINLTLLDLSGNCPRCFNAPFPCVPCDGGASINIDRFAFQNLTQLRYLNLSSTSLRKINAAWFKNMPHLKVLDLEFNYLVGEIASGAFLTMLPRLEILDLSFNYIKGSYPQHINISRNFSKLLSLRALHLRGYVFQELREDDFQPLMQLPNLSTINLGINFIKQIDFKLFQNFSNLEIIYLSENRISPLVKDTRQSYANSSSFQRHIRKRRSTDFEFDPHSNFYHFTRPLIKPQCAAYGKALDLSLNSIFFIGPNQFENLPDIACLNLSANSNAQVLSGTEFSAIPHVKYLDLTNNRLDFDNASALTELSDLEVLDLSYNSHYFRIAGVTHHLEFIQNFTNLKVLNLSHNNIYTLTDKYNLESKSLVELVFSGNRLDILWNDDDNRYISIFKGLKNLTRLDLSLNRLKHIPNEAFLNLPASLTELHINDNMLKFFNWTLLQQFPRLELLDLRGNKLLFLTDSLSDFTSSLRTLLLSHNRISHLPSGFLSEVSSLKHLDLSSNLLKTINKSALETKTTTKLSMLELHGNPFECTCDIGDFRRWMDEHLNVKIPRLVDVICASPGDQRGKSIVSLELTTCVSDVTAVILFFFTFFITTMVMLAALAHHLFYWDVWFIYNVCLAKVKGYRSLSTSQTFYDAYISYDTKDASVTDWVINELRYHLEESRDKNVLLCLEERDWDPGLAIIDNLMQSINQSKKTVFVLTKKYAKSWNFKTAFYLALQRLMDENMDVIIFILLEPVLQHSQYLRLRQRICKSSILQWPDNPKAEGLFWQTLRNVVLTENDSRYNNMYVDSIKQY

[10] = molecular target: T1, Toll-like receptor 8 (Homo sapiens); test: Agonist activity at TLR8 in human PBMC cells assessed as increase in TNF-alpha level incubated for 24 hrs by ELISA; type: cell-based; details: filed as agonist, dose 0.4-10 µM
[11] = molecular target: T1, Toll-like receptor 8 (Homo sapiens); test: Agonist activity at TLR8 in human PBMC cells assessed as increase in IL-12 level incubated for 24 hrs by ELISA; type: cell-based; details: filed as agonist, dose 0.4-10 µM
[12] = Cytotoxicity against human HepG2.A64 cells assessed as reduction in cell viability incubated for 72 hrs by CCK8 assay; type: toxicity, cell-based

Row | SMILES | CC50 at 72 h [1] | Activity [2] | IC50 [3] | selectivity ratio [4] | further results
1 | O=C(CCn1cnc2cc(-c3noc(CCC4CCCCC4)n3)ccc21)N1CCCC1 | > 20 µM | 0.74% |  |  | 
2 | O=C(CCn1cnc2cc(-c3noc(CCC4CCCC4)n3)ccc21)N1CCCCC1 | > 20 µM | 53.4% | 6.3 µM | > 3.17 | 
3 | O=C(NCCn1cnc2cc(-c3noc(CCC4CCCC4)n3)ccc21)c1cccc(I)c1 | > 20 µM | 68.86% | 1.67 µM | > 12 | 
4 | O=C(CCn1cnc2cc(-c3noc(CCC4CCCC4)n3)ccc21)NC1CCCC1 | > 20 µM | 21.36% |  |  | 
5 | O=C(CCn1cnc2cc(-c3noc(CCC4CCCC4)n3)ccc21)N1CCOCC1 | > 20 µM | 0.02% |  |  | 
6 | O=C(NCCn1cnc2cc(-c3noc(CCC4CCCC4)n3)ccc21)c1ccc(F)cc1 | > 20 µM | 65.06% | 1.33 µM | > 15 | 
7 | O=C(NCCn1cnc2cc(-c3noc(CCC4CCCC4)n3)ccc21)c1ccccc1C(F)(F)F | > 20 µM | 46.02% | 3.89 µM | > 5.14 | 
8 | O=C(NCCn1cnc2cc(-c3noc(CCC4CCCC4)n3)ccc21)c1cccc(F)c1 | > 20 µM | 45.92% |  |  | 
9 | O=C(CCn1cnc2cc(-c3noc(CCc4ccccc4)n3)ccc21)N1CCCC1 | > 20 µM | 24.46% |  |  | 
10 | O=C(NCCn1cnc2cc(-c3noc(CCC4CCCC4)n3)ccc21)c1cccc(C(F)(F)F)c1 | > 20 µM | 84.47% | 0.53 µM | > 37.7 | IC50 [5]: 0.44 µM; selectivity ratio [6]: > 45.5; Ratio IC50 [7]: 150; Activity [8]: inactive; Activity [9]: Active; Activity [10]: Dose-Dependent Effect; Activity [11]: Dose-Dependent Effect; CC50 at 72 h [12]: > 20 µM
11 | Nc1ccn([C@@H]2CS[C@H](CO)O2)c(=O)n1 [LAMIVUDINE] | > 20 µM | 84.42% | < 0.1 µM | > 1000 | IC50 [5]: > 100 µM; CC50 at 72 h [12]: > 100 µM
12 | COc1cccc(C(=O)NCCn2cnc3cc(-c4noc(CCC5CCCC5)n4)ccc32)c1 | > 20 µM | 70.78% | 1.6 µM | > 12.5 | 
13 | O=C(NCCn1cnc2cc(-c3noc(CCC4CCCC4)n3)ccc21)c1ccccc1F | > 20 µM | 54.72% | 1.07 µM | > 18.7 | 
14 | Cc1ccc(C(=O)NCCn2cnc3cc(-c4noc(CCC5CCCC5)n4)ccc32)cc1 | > 20 µM | 54.11% | 1.53 µM | > 13.1 | 
15 | O=C(CCn1cnc2cc(-c3noc(CCC4CCCC4)n3)ccc21)N1CCCC1 | > 20 µM | 48.57% | 5.17 µM | > 3.69 | 
16 | O=C(NCCn1cnc2cc(-c3noc(CCC4CCCC4)n3)ccc21)c1ccc(C(F)(F)F)cc1 | > 20 µM | 63.99% | 0.69 µM | > 29 | IC50 [5]: 0.61 µM; selectivity ratio [6]: > 32.8; Ratio IC50 [7]: 150; CC50 at 72 h [12]: > 20 µM

Row | SMILES | CC50 at 72 h [1] | Activity [2] | IC50 [3] | selectivity ratio [4] | further results
17 | O=C(NCCn1cnc2cc(-c3noc(CCC4CCCC4)n3)ccc21)c1cccc(Cl)c1 | > 20 µM | 82.78% | 0.85 µM | > 23.5 | 
18 | O=C(CCn1cnc2cc(-c3noc(CCC4CCCC4)n3)ccc21)NC1CCCCC1 | > 20 µM | 2.64% |  |  | 
19 | Cc1ccccc1NC(=O)CCn1cnc2cc(-c3noc(CCC4CCCC4)n3)ccc21 | > 20 µM | 7.43% |  |  | 
20 | O=C(NCCn1cnc2cc(-c3noc(CCC4CCCC4)n3)ccc21)c1ccccc1Cl | > 20 µM | 10.63% |  |  | 
21 | O=C(NCCn1cnc2cc(-c3noc(CCC4CCCC4)n3)ccc21)c1ccccc1Br | > 20 µM | 53.47% | 1.61 µM | > 12.4 | 
22 | O=C(NCCn1cnc2cc(-c3noc(CCC4CCCC4)n3)ccc21)c1cccc(Br)c1 | > 20 µM | 64.39% | 3.32 µM | > 6.02 | 
23 | COc1ccccc1C(=O)NCCn1cnc2cc(-c3noc(CCC4CCCC4)n3)ccc21 | > 20 µM | 76.09% | 1.55 µM | > 12.9 | 
24 | Cc1cccc(C(=O)NCCn2cnc3cc(-c4noc(CCC5CCCC5)n4)ccc32)c1 | > 20 µM | 9.58% |  |  | 
25 | O=C(NCCn1cnc2cc(-c3noc(CCC4CCCC4)n3)ccc21)c1ccccc1I | > 20 µM | 30.88% |  |  | 
26 | O=C(NCCn1cnc2cc(-c3noc(CCC4CCCC4)n3)ccc21)c1ccccc1 | > 20 µM | 28.98% |  |  | 
27 | COc1ccc(C(=O)NCCn2cnc3cc(-c4noc(CCC5CCCC5)n4)ccc32)cc1 | > 20 µM | 73.8% | 2.64 µM | > 7.58 | 
28 | Cc1ccccc1C(=O)NCCn1cnc2cc(-c3noc(CCC4CCCC4)n3)ccc21 | > 20 µM | 6.59% |  |  | 
29 | O=C(NCCn1cnc2cc(-c3noc(CCC4CCCC4)n3)ccc21)c1ccc(I)cc1 | > 20 µM | 54.76% | 2.63 µM | > 7.6 | 
30 | O=C(NCCn1cnc2cc(-c3noc(CCC4CCCC4)n3)ccc21)c1ccc(Cl)cc1 | > 20 µM | 63.41% | 1.96 µM | > 10.2 | 
31 | O=C(NCCn1cnc2cc(-c3noc(CCC4CCCC4)n3)ccc21)c1ccc(Br)cc1 | > 20 µM | 38.03% |  |  | 
